The results in this text go back to PubChem BioAssay AID256 (DTP/NCI, 2004).

The structures appear in SMILES notation. Several values for one entry are separate records, joined by “and”; a condition that tells them apart may be missing. Equal values may be shown once. Toxic doses and inconclusive results are not listed.

The assay deals with CD2F1 mice, L1210 leukemia ip, survival T/C. Description: NCI In Vivo Anticancer Drug Screen. Data for tumor model L1210 Leukemia (intraperitoneal) in CD2F1 (CDF1) mice. The conditions noted are these: higher = longer survival. The method in brief: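 In this screen, transplantable tumors were grown in mice given either the compound or its vehicle. Results were expressed as the treated measurement relative to the control measurement.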

Where [1] appears, read: endpoint: mean survival time, dose: 100.0 mg/kg/injection, schedule: Q01DX009 (ip), vehicle: saline with Tween-80.
The mark [2] stands for this setting: endpoint: mean survival time, dose: 100.0 mg/kg/injection, schedule: Q04DX003 (ip), vehicle: saline with Tween-80.
The mark [3] stands for this setting: endpoint: mean survival time, dose: 200.0 mg/kg/injection, schedule: Q01DX009 (ip), vehicle: saline with Tween-80.
The mark [4] stands for this setting: endpoint: mean survival time, dose: 200.0 mg/kg/injection, schedule: Q04DX003 (ip), vehicle: saline with Tween-80.
Setting [5] is: endpoint: mean survival time, dose: 400.0 mg/kg/injection, schedule: Q04DX003 (ip), vehicle: saline with Tween-80.
[6] abbreviates: endpoint: mean survival time, dose: 100.0 mg/kg/injection, schedule: Q01DX001 (ip), vehicle: saline with Tween-80.
[7] abbreviates: endpoint: mean survival time, dose: 400.0 mg/kg/injection, schedule: Q01DX001 (ip), vehicle: saline with Tween-80.
[8] abbreviates: endpoint: mean survival time, dose: 50.0 mg/kg/injection, schedule: Q01DX009 (ip), vehicle: saline with Tween-80.
The mark [9] stands for this setting: endpoint: mean survival time, dose: 12.5 mg/kg/injection, schedule: Q04DX003 (ip), vehicle: saline.

Take `CCc1cc(O)cc(C)c1Cl`: the T/C was 96 % of control under setting [1]; 92 % of control under setting [2]; 92 % of control under setting [3]; 92 % of control under setting [4]; 100 % of control under setting [5].
As to `CCOC1OC(COC(C)=O)C(OC(C)=O)C(OC(C)=O)C1OC(C)=O` (stereo unspecified), the T/C under setting [6] is 94 % of control; the T/C (endpoint: mean survival time, dose: 200.0 mg/kg/injection, schedule: Q01DX001 (ip), vehicle: saline with Tween-80) was 97 % of control; the T/C under setting [7] is 96 % of control.
As to `O=C1Nc2ccccc2/C1=N/N=C/c1cc(Cl)cc(Cl)c1O`, the T/C under setting [6] is 94 % of control and the T/C under setting [7] was 95 % of control.
Take `COc1ccc(Cl)cc1C/C=N/N(C)C`: the T/C is 103 % of control (endpoint: mean survival time, dose: 75.0 mg/kg/injection, schedule: Q01DX001 (ip), vehicle: saline) and 105 % of control (endpoint: mean survival time, dose: 150.0 mg/kg/injection, schedule: Q01DX001 (ip), vehicle: saline).
As for `Cn1c(=O)c2[n-]cnc2n(C)c1=O.[NH2-].[NH2-].[NH2-].[NH2-].[NH2-].[Ru+6]`, the T/C is, setting by setting: (endpoint: mean survival time, dose: 6.25 mg/kg/injection, schedule: Q04DX003 (ip), vehicle: water) 106 % of control; (endpoint: mean survival time, dose: 12.5 mg/kg/injection, schedule: Q04DX003 (ip), vehicle: water) 102 % of control; (endpoint: mean survival time, dose: 25.0 mg/kg/injection, schedule: Q04DX003 (ip), vehicle: water) 104 % of control; (endpoint: mean survival time, dose: 50.0 mg/kg/injection, schedule: Q04DX003 (ip), vehicle: water) 104 % of control; (endpoint: mean survival time, dose: 100.0 mg/kg/injection, schedule: Q04DX003 (ip), vehicle: water) 104 % of control.
Turning to `CC(=O)[O][Hg][c]1s[c]([Hg][O]C(C)=O)[c]([Hg][O]C(C)=O)[c]1[Hg][O]C(C)=O`, the T/C (endpoint: mean survival time, dose: 1.5 mg/kg/injection, schedule: Q01DX009 (ip), vehicle: saline sonified) was 96 % of control; the T/C (endpoint: mean survival time, dose: 3.0 mg/kg/injection, schedule: Q01DX009 (ip), vehicle: saline sonified) is 98 % of control; the T/C (endpoint: mean survival time, dose: 6.0 mg/kg/injection, schedule: Q01DX009 (ip), vehicle: saline sonified) was 106 % of control; the T/C (endpoint: mean survival time, dose: 6.25 mg/kg/injection, schedule: Q01DX009 (ip), vehicle: Klucel (hydroxypropylcellulose) (HPC)) was 101 % of control; the T/C (endpoint: mean survival time, dose: 6.25 mg/kg/injection, schedule: Q04DX003 (ip), vehicle: saline with Tween-80) is 104 % of control; the T/C (endpoint: mean survival time, dose: 12.5 mg/kg/injection, schedule: Q01DX009 (ip), vehicle: Klucel (hydroxypropylcellulose) (HPC)) was 106 % of control. Besides, the T/C (endpoint: mean survival time, dose: 25.0 mg/kg/injection, schedule: Q01DX009 (ip), vehicle: Klucel (hydroxypropylcellulose) (HPC)) was 104 % of control.
Consider `O=S(=O)(OC(Cc1ccccc1)Cc1ccccc1)c1ccc(Br)cc1`, for which the T/C is 95 % of control under setting [8], 91 % of control under setting [1] and 95 % of control under setting [3].
On to `Cc1cc(N)nc2ccccc12`, for which the T/C by setting is: (endpoint: mean survival time, dose: 3.12 mg/kg/injection, schedule: Q04DX002 (ip), vehicle: saline with Tween-80) 101 % of control; (endpoint: mean survival time, dose: 6.25 mg/kg/injection, schedule: Q04DX002 (ip), vehicle: saline with Tween-80) 105 % of control; (endpoint: mean survival time, dose: 12.5 mg/kg/injection, schedule: Q04DX002 (ip), vehicle: saline with Tween-80) 94 % of control and 101 % of control.
For the compound `CC(=O)OCC1OC(OC(C)=O)C(NC(=O)Nc2ccccc2)C(OC(C)=O)C1OC(C)=O` (stereo unspecified), the T/C (endpoint: mean survival time, dose: 12.5 mg/kg/injection, schedule: Q01DX009 (ip), vehicle: other) is 96 % of control; the T/C (endpoint: mean survival time, dose: 25.0 mg/kg/injection, schedule: Q01DX009 (ip), vehicle: other) was 94 % of control; the T/C (endpoint: mean survival time, dose: 50.0 mg/kg/injection, schedule: Q01DX009 (ip), vehicle: other) was 96 % of control; the T/C (endpoint: mean survival time, dose: 100.0 mg/kg/injection, schedule: Q01DX009 (ip), vehicle: other) is 93 % of control; the T/C (endpoint: mean survival time, dose: 200.0 mg/kg/injection, schedule: Q01DX009 (ip), vehicle: other) was 94 % of control.
Take `O=C([O-])[O-].O=[N+]([O-])O.[Co+3].[NH2-].[NH2-].[NH2-].[NH2-]`: the T/C runs as follows: (endpoint: mean survival time, dose: 400.0 mg/kg/injection, schedule: Q01DX009 (ip), vehicle: saline with Tween-80) 93 % of control; under setting [5], 94 % of control.
Turning to `NCCCN1CCCCC1`, the T/C reads like this: (endpoint: mean survival time, dose: 100.0 mg/kg/injection, schedule: Q04DX002 (ip), vehicle: saline) 102 % of control; (endpoint: mean survival time, dose: 200.0 mg/kg/injection, schedule: Q04DX002 (ip), vehicle: saline) 95 % of control; (endpoint: mean survival time, dose: 400.0 mg/kg/injection, schedule: Q04DX002 (ip), vehicle: saline) 102 % of control.
As to `O=c1c2cccc3cccc(c32)c2cc(-c3ccccc3)nn12`, the T/C is, setting by setting: (endpoint: mean survival time, dose: 25.0 mg/kg/injection, schedule: Q04DX002 (ip), vehicle: saline with Tween-80) 100 % of control; (endpoint: mean survival time, dose: 50.0 mg/kg/injection, schedule: Q04DX002 (ip), vehicle: saline with Tween-80) 92 % of control; (endpoint: mean survival time, dose: 100.0 mg/kg/injection, schedule: Q04DX002 (ip), vehicle: saline with Tween-80) 96 % of control; (endpoint: mean survival time, dose: 200.0 mg/kg/injection, schedule: Q04DX002 (ip), vehicle: saline with Tween-80) 103 % of control.
As to `CN1C(=O)CC(c2ccc(NC(=O)N(CCCl)N=O)cc2)C1=O` (stereo unspecified), the T/C is, setting by setting: (endpoint: mean survival time, dose: 12.5 mg/kg/injection, schedule: Q01DX001 (ip), vehicle: distilled water + Tween-80) 155 % of control and 160 % of control; (endpoint: mean survival time, dose: 25.0 mg/kg/injection, schedule: Q01DX001 (ip), vehicle: distilled water + Tween-80) 183 % of control and 196 % of control; (endpoint: mean survival time, dose: 50.0 mg/kg/injection, schedule: Q01DX001 (ip), vehicle: distilled water + Tween-80) 95 % of control.
`O=C1C=CC(=O)N1CN1CCOCC1`: the T/C was 103 % of control (endpoint: mean survival time, dose: 4.37 mg/kg/injection, schedule: Q01DX009 (ip), vehicle: saline); 91 % of control (endpoint: mean survival time, dose: 8.75 mg/kg/injection, schedule: Q01DX009 (ip), vehicle: saline); 95 % of control under setting [9].
For `Cc1ccc(-n2c(O)c(C=N)c(=O)[nH]c2=O)cc1`, the T/C was 101 % of control under setting [2], 97 % of control under setting [4] and 103 % of control under setting [5].
Consider `Cn1c(=O)c2c(nc(NN)n2C)n(C)c1=O`, for which the T/C was 100 % of control (endpoint: mean survival time, dose: 12.5 mg/kg/injection, schedule: Q01DX005 (ip), vehicle: distilled water + Tween-80); 100 % of control (endpoint: mean survival time, dose: 25.0 mg/kg/injection, schedule: Q01DX005 (ip), vehicle: distilled water + Tween-80); 103 % of control (endpoint: mean survival time, dose: 50.0 mg/kg/injection, schedule: Q01DX005 (ip), vehicle: distilled water + Tween-80); 89 % of control (endpoint: mean survival time, dose: 100.0 mg/kg/injection, schedule: Q01DX005 (ip), vehicle: distilled water + Tween-80); 101 % of control (endpoint: mean survival time, dose: 200.0 mg/kg/injection, schedule: Q01DX005 (ip), vehicle: distilled water + Tween-80).
In the case of `CN1C2CCC1C(Br)C(=O)C2` (stereo unspecified), the T/C was 102 % of control (endpoint: median survival time, dose: 25.0 mg/kg/injection, schedule: Q01DX009 (ip), vehicle: saline); 105 % of control (endpoint: median survival time, dose: 50.0 mg/kg/injection, schedule: Q01DX009 (ip), vehicle: saline); 105 % of control (endpoint: median survival time, dose: 100.0 mg/kg/injection, schedule: Q01DX009 (ip), vehicle: saline); 101 % of control (endpoint: median survival time, dose: 200.0 mg/kg/injection, schedule: Q01DX009 (ip), vehicle: saline).
In the case of `CCCCCCSC(=O)Nc1ccc(C)c(NC(=O)SCCCCCC)c1`, the T/C is 95 % of control under setting [8], 93 % of control under setting [1] and 93 % of control under setting [3].
As to `C=CCNc1ncnc2c1cnn2C`, the T/C runs as follows: (endpoint: mean survival time, dose: 100.0 mg/kg/injection, schedule: Q04DX003 (ip), vehicle: saline) 106 % of control; (endpoint: mean survival time, dose: 200.0 mg/kg/injection, schedule: Q04DX003 (ip), vehicle: saline) 104 % of control.
For `CCOC(=O)N(Cl)Cl`, the T/C under setting [9] is 102 % of control.
Consider `CC(=O)Oc1cc2c3c(c1)CCCN3CCC2`, for which the T/C runs as follows: (endpoint: mean survival time, dose: 5.0 mg/kg/injection, schedule: Q04DX003 (ip), vehicle: saline) 102 % of control; (endpoint: mean survival time, dose: 6.25 mg/kg/injection, schedule: Q01DX009 (ip), vehicle: saline with Tween-80) 101 % of control; (endpoint: mean survival time, dose: 12.5 mg/kg/injection, schedule: Q01DX009 (ip), vehicle: saline with Tween-80) 96 % of control.
